System: SEM cells
Test: cell viability relative to DMSO control; higher = less cytotoxic
Details: 48 h
Procedure, shortened: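 In 1536-well plates, 5 μl of leukemia cells were seeded per well: 500 cells/well for NOMO1 or SEM and 1000 cells/well for P12-Ichikawa. Each line had first been adapted for at least four passages in each medium. Library compounds in DMSO were pin-dosed at 11 threefold concentrations between 47 μM and 0.79 nM, and CellTiter-Glo One luminescence was read after 48 h at 37°C. Viability is a per-plate percentage relative to DMSO wells, with cell-free wells as background.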

[1] = HPLM + 10% dialyzed FBS, 0.000781 µM
[2] = HPLM + 10% dialyzed FBS, 0.00234 µM
[3] = HPLM + 10% dialyzed FBS, 0.00702 µM
[4] = HPLM + 10% dialyzed FBS, 0.0211 µM
[5] = HPLM + 10% dialyzed FBS, 0.0632 µM
[6] = HPLM + 10% dialyzed FBS, 0.19 µM
[7] = HPLM + 10% dialyzed FBS, 0.569 µM
[8] = HPLM + 10% dialyzed FBS, 1.71 µM
[9] = HPLM + 10% dialyzed FBS, 5.12 µM
[10] = HPLM + 10% dialyzed FBS, 15.4 µM
[11] = HPLM + 10% dialyzed FBS, 46.1 µM
[12] = RPMI 5 mM glucose + 10% FBS, 0.000781 µM
[13] = RPMI 5 mM glucose + 10% FBS, 0.00234 µM
[14] = RPMI 5 mM glucose + 10% FBS, 0.00702 µM
[15] = RPMI 5 mM glucose + 10% FBS, 0.0211 µM
[16] = RPMI 5 mM glucose + 10% FBS, 0.0632 µM
[17] = RPMI 5 mM glucose + 10% FBS, 0.19 µM
[18] = RPMI 5 mM glucose + 10% FBS, 0.569 µM
[19] = RPMI 5 mM glucose + 10% FBS, 1.71 µM
[20] = RPMI 5 mM glucose + 10% FBS, 5.12 µM
[21] = RPMI 5 mM glucose + 10% FBS, 15.4 µM
[22] = RPMI 5 mM glucose + 10% FBS, 46.1 µM
[23] = RPMI 5 mM glucose + 10% dialyzed FBS, 0.000781 µM
[24] = RPMI 5 mM glucose + 10% dialyzed FBS, 0.00234 µM
[25] = RPMI 5 mM glucose + 10% dialyzed FBS, 0.00702 µM
[26] = RPMI 5 mM glucose + 10% dialyzed FBS, 0.0211 µM
[27] = RPMI 5 mM glucose + 10% dialyzed FBS, 0.0632 µM
[28] = RPMI 5 mM glucose + 10% dialyzed FBS, 0.19 µM
[29] = RPMI 5 mM glucose + 10% dialyzed FBS, 0.569 µM
[30] = RPMI 5 mM glucose + 10% dialyzed FBS, 1.71 µM
[31] = RPMI 5 mM glucose + 10% dialyzed FBS, 5.12 µM
[32] = RPMI 5 mM glucose + 10% dialyzed FBS, 15.4 µM
[33] = RPMI 5 mM glucose + 10% dialyzed FBS, 46.1 µM

SMILES	cell viability [1] [%]	cell viability [2] [%]	cell viability [3] [%]	cell viability [4] [%]	cell viability [5] [%]	cell viability [6] [%]	cell viability [7] [%]	cell viability [8] [%]	cell viability [9] [%]	cell viability [10] [%]	cell viability [11] [%]	cell viability [12] [%]	cell viability [13] [%]	cell viability [14] [%]	cell viability [15] [%]	cell viability [16] [%]	cell viability [17] [%]	cell viability [18] [%]	cell viability [19] [%]	cell viability [20] [%]	cell viability [21] [%]	cell viability [22] [%]	cell viability [23] [%]	cell viability [24] [%]	cell viability [25] [%]	cell viability [26] [%]	cell viability [27] [%]	cell viability [28] [%]	cell viability [29] [%]	cell viability [30] [%]	cell viability [31] [%]	cell viability [32] [%]	cell viability [33] [%]
CC(=O)OC[C@H]1O[C@@H]([S-])[C@H](OC(C)=O)[C@@H](OC(C)=O)[C@@H]1OC(C)=O.CCP(CC)CC.[Au+]	73.4	72.8	68.7	82.1	73.6	97.6	84	83.1	15.9	6.62	6.21	91.1	75	87.3	84.8	77.8	105	101	88.5	6.02	6.28	5.83	78.4	85.1	78.6	80.1	77.6	87.2	84.5	69.4	7.37	6.42	5.84
O=C([O-])C[C@H](O)C[C@H](O)/C=C/c1c(C2CC2)nc2ccccc2c1-c1ccc(F)cc1	82.3	73.1	97.5	102	89.1	90	86.1	83.9	87.4	70	18.9	99.4	85.2	99.1	97.9	108	99.4	96.7	109	81.6	43.7	10.7	99.1	81	91.7	95.9	112	85	79.6	97.9	94.5	69.1	13.6
CCc1cc(C(N)=S)ccn1	80.7	81.5	88	86.3	91.5	92.3	90.8	89.8	91.2	54.7	84.7	112	103	98.1	108	104	107	102	97.8	88.4	36.1	68.7	94.9	99.1	89.8	106	101	116	102	94.5	100	53.9	64.2
O=C/1NC(=O)C(=C1C2=CN=C3C=CC=C[N]23)/C4=C[N]5CCN(CC6=C5C4=CC=C6)C(=O)N7CCOCC7	111	104	62.9	14.5	14.7	14.1	13.7	11.3	10.6	9.94	10.3	96.7	106	65.2	17.9	14.7	16.1	15	12.4	13.8	13.1	12.8	101	102	63.8	22.2	17.1	13.1	16.3	14	14.6	11.1	10.6
CC1=C(/C=C/C(C)=C/C=C/C(C)=C\C(=O)O)C(C)(C)CCC1	82.8	84.8	67.9	103	98.1	96.7	101	91.5	44.3	80.1	78.5	85	93.2	77.5	112	99.5	107	108	107	46.1	98.2	106	68.1	78.3	64.2	93.2	95.3	107	83.4	75.8	41.6	77.8	85.8
N[C@H]2CN(CC12CC1)c3c(F)cc4c(c3Cl)[N@@](C=C(C4=O)C(=O)O)C5C[C@H]5F (some centres undefined)	90.7	93.2	89.9	88.9	92.2	86.4	84.3	84.7	90.5	60.6	84.6	107	126	112	119	103	136	73.2	113	103	74.6	95.4	71.1	83	92.4	83.8	92.2	92.5	75.6	98.6	91	50.1	78.7
NC(=O)[C@H]1CCS[C@@H]2C[C@]3(CCCN3C(=O)Cc3ccc(NC(=O)COc4ccc(Cl)cc4Cl)cc3)C(=O)N12	96.1	101	94	107	104	103	97.7	61.4	38	28.2	31.5	105	106	112	107	121	103	85.7	18.4	16.2	19.6	10.2	115	102	123	120	113	114	117	66.6	35.1	20.8	19.9
O=C(CC12CC3CC(CC(C3)C1)C2)Nc1cccc2nc(NCCNCCO)ccc12	81.1	82.1	73.8	96.5	78.2	77.8	93.8	64.1	84.6	101	36.3	90.5	99.3	83.6	96.3	75.6	76.1	94.4	83.3	82.7	101	21.9	82.8	87.7	65.3	94.8	81.6	72.5	102	78.7	94.6	82.6	40
Cc1c(-c2cccc3c(CCCOc4cccc5ccccc45)c(C(=O)O)n(Cc4cccnc4)c23)c(COc2ccc(N3CCN([S+](=O)([O-])N(C)C)CC3)cc2)nn1C	92.3	99.5	85.1	85.2	104	82.8	83.5	97.6	81	79.2	48.3	100	108	86.2	129	111	128	112	114	102	95.5	54.8	107	99.1	80.5	83.2	100	91.5	109	96.5	77.1	70	43
ClC1=CC=C2N/C3=N/C(=O)CN3CC2=C1Cl	123	124	120	134	126	119	132	138	125	115	105	–	–	–	–	–	–	–	–	–	–	–	–	–	–	–	–	–	–	–	–	–	–
C=C1C(=O)OC(CCCCCCCC)C1C(=O)O (centres undefined)	97.2	108	106	118	108	105	111	107	90.6	125	113	97.5	99.9	111	106	102	119	108	113	14.1	125	113	111	98.2	111	126	120	128	125	117	84.3	121	121
Cc1ccc([N+](=O)[O-])cc1[S+](=O)([O-])N(C)/N=C/c1cnc2ccc(Br)cn12	106	118	96.1	75.7	74.5	13.9	8.58	5.5	5.52	4.94	4.47	–	–	–	–	–	–	–	–	–	–	–	112	99.8	92.9	95.3	77.1	19.8	6.67	5.43	4.76	4.76	3.83
O=C(Nc1nnc(-c2ccco2)o1)c1cc(-c2ccccc2)nc2ccccc12	87.5	96.5	96.3	95	91.5	110	95.3	106	103	93	4.54	92.6	75.1	95.6	79.7	104	95.6	98.2	85	41.3	5.04	2.95	91.8	94.2	104	101	107	109	99	95.3	106	77.8	3.49
O=C1CCC[C@@H]2[C@H]3CCCN4CCC[C@@H](CN12)[C@@H]34	44.2	65.4	55.2	65.6	72.7	73.2	72.3	78.1	67.5	71.3	73	73	87	75.5	82.4	92.8	92.2	93.2	84	63.1	80	72.6	60.4	79.1	62.4	89.7	73.9	82.6	77.6	72.3	64.2	68.5	68.3
